The record followed here is PubChem BioAssay (NCI).

The structures appear in SMILES notation.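 Five compound concentrations were applied to cells in 96-well plates for 48 hours; endpoints were derived by simple linear interpolation of the resulting dose-response curve. GI50 marks 50% less growth. TGI: concentration producing complete growth inhibition.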 Bounds are passed on as bounds.

What all share (test): NCI-60 cell line screen, 48 h
Assay [1] relates to SNB-75 CNS.
In assay [2] the test system is HCC-2998 colon.
In assay [3] the test system is UACC-257 melanoma.
For assay [4], the system named is NCI/ADR-RES ovarian.
In assay [5] the test system is OVCAR-3 ovarian.
The subject of assay [6] is SK-OV-3 ovarian.
Assay [7] deals with NCI-H522 lung.
The test system of assay [8] is CAKI-1 renal.
Assay [9] deals with MDA-N.

Turning to `C[C@]12CC[C@@H]3c4ccc(O)cc4CC[C@H]3[C@@H]1CC[C@@H]2NS(=O)(=O)c1ccc(-c2ccccc2)cc1`, the GI50 in assay [1] was 3.5 µM; in [2], 4.39 µM; in assay [3], 4.26 µM; in [4], 3.87 µM; in assay [5] it was 3.32 µM; in assay [6], 6.79 µM. The GI50 in assay [7] was 4.26 µM; in assay [8], 3.57 µM. The TGI in assay [1] was 55.2 µM; in [2], over 100 µM; in [3], 32.6 µM; in [4], over 100 µM; in [5], 12.7 µM; in assay [6] it was over 100 µM. The TGI was 27.2 µM in assay [7] and over 100 µM in assay [8].
Regarding `CC(=O)C1=C(O)/C(=C\c2ccco2)OC1=O`, the TGI in [1], in assay [2], in assay [3], in assay [4], in assay [5] and in assay [6] was over 10 µM throughout. Moreover, the TGI in assay [7] and in assay [8] was over 10 µM each time.
Take `CN1C(=O)C23CC4=CC=CC(O)C4N2C(=O)C1(CO)SS3` (stereo unspecified): the TGI in assay [1] stood at 0.382 µM; in [2] it was 0.351 µM; in [3] it was 0.936 µM; in [4], 0.0661 µM; in assay [5], 0.33 µM; in assay [6], 2.75 µM. Further, the TGI in [7] amounted to 0.338 µM; in assay [8] it was 0.759 µM.
As for `CCOC(=O)Cc1csc(NC(=O)C(OC(=O)c2ccc(N)cc2)c2ccccc2)n1` (stereo unspecified), the GI50 in [1] was 45.9 µM; in assay [2] it was 60 µM; in assay [3], 40.5 µM; in assay [4] it was 43.5 µM; in assay [5], 20.5 µM; in [6] it was 46.7 µM. For the same molecule, the GI50 in assay [7] is 43 µM; in assay [8] it was 39.6 µM. In addition, the TGI in assay [1] is over 100 µM; in [2], over 100 µM; in assay [3] it was over 100 µM; in assay [4] it was over 100 µM; in [5], 45.3 µM; in assay [6], over 100 µM. Besides, the TGI in [7] and in assay [8] was over 100 µM each time.
Regarding `CCSc1nc(N)c2cnn(C)c2n1`, the GI50 was 68.9 µM in assay [1]; 25.4 µM in assay [2]; 67.1 µM in [3]; over 100 µM in [4]; 30.6 µM in assay [5]; 54.8 µM in assay [6]. Further, the figures for the GI50 in [7] and in assay [8] were 62.9 µM and 25.9 µM, respectively. The TGI in [1] is over 100 µM; in [2], 92.1 µM; in [3], over 100 µM; in assay [4] it was over 100 µM; in [5], over 100 µM; in [6], over 100 µM. Moreover, the TGI in assay [7] and in assay [8] was over 100 µM throughout.
As to `O=[N+]([O-])c1cccc(-c2ncc(-c3ccc(Cl)cc3Cl)[nH]2)c1`, the GI50 was 8 µM in [1]; 7.36 µM in [2]; 9.7 µM in [3]; 11.6 µM in assay [4]; 2.44 µM in assay [5]; 22.7 µM in assay [6]. The values for the GI50 in assay [7] and in assay [8] were 10.3 µM and 1.82 µM, respectively. The TGI in assay [1] is 36.9 µM; in assay [2], 16.4 µM; in assay [3] it was 29 µM; in [4] it was over 83.3 µM; in assay [5], 5.93 µM; in [6], over 70 µM. Further, the TGI was over 27.2 µM in [7] and 4.71 µM in assay [8].
Turning to `O=c1c2cc(F)ccc2sc2c(NCCCN3CCCC3)nc3ccccc3c12`, the GI50 is 1.43 µM in assay [1]; 1.67 µM in [2]; 1.97 µM in assay [3]; 1.99 µM in assay [4]; 2.07 µM in assay [5]; 2.35 µM in [6]. The GI50 is 1.97 µM in [7] and 1.48 µM in assay [8]. The TGI in assay [1] turned out to be 3.14 µM; in [2], 3.25 µM; in assay [3] it was 3.98 µM; in assay [4] it was 4.49 µM; in [5], 4.72 µM; in assay [6], 7.79 µM. Besides, the TGI was determined as 3.96 µM in assay [7] and 2.95 µM in assay [8].
`CCCCCCCCCCCCCCCCCC1=NC(C)(C)CN1CCO`: the GI50 in assay [1] is 1.81 µM; in [2], 1.71 µM; in [3] it was 1.8 µM; in assay [4] it was 3.16 µM; in assay [5], 1.61 µM; in assay [6] it was 1.72 µM. For the same molecule, the results for the GI50 in assay [7] and in [8] were 1.55 µM and 1.6 µM, respectively. Also, the TGI in [1] amounted to 4.01 µM; in assay [2], 3.11 µM; in assay [3], 3.57 µM; in assay [4], 11.5 µM; in assay [5], 2.97 µM; in assay [6] it was 3.16 µM. In addition, the TGI in assay [7] came out at 3.15 µM; in [8], 3.37 µM.
Regarding `CN1CC(C(=O)NC2(C)OC3(O)C4CCCN4C(=O)C(Cc4ccccc4)N3C2=O)C=C2c3cccc4[nH]cc(c34)CC21` (stereo unspecified), the TGI is 55.1 µM in assay [9]; over 100 µM in assay [1]; 29.8 µM in [3]; 95.1 µM in assay [4]; 43.3 µM in [5]; over 100 µM in assay [6]. Besides, the TGI in assay [7] is 33.3 µM; in [8], 92 µM.
On to `CCCCCCN(CCCCCC)CC(O)c1cccc2ccc(Cl)cc12` (stereo unspecified), for which the GI50 in assay [1] is 7.43 µM; in assay [2] it was 2.96 µM; in assay [3], 12.9 µM; in [4], 11.4 µM; in assay [5], 13 µM; in [6] it was 11.3 µM. Moreover, the GI50 in assay [7] was 7.94 µM; in assay [8], 2.64 µM. Moreover, the TGI came out at 20.6 µM in assay [1]; 8.04 µM in [2]; 28.7 µM in [3]; 25.1 µM in assay [4]; 26 µM in assay [5]; 23.4 µM in [6]. For the same molecule, the figures for the TGI in assay [7] and in assay [8] were 23 µM and 14.7 µM, respectively.
